Key:
human recombinant Top1 = human recombinant Top1 (Homo sapiens (Human), UniProt P11387); experiment: Topoisomerase I-mediated DNA cleavage reactions; settings: for Top1, compound-induced DNA cleavage due to Top1 inhibition: semiquantitative scale relative to 1 μM camptothecin (90) or MJ-III-65 (91)
Experimental: Topoisomerase I-Mediated DNA Cleavage Reactions.
DNA cleavage reactions were prepared as previously reported with the exception of the DNA substrate. […] Unincorporated [^32P]dGTP was removed using mini Quick Spin DNA columns (Roche, Indianapolis, Ind.), and the eluate containing the 3′-end-labeled DNA substrate was collected. Approximately 2 nM radiolabeled DNA substrate was incubated with recombinant Top1 in 20 μL of reaction buffer [10 mM Tris-HCl (pH 7.5), 50 mM KCl, 5 mM MgCl2, 0.1 mM EDTA, and 15 μg/mL BSA] at 25° C. for 20 min in the presence of various concentrations of compounds. The reactions were terminated by adding SDS (0.5% final concentration) followed by the addition of two volumes of loading dye (80% formamide, 10 mM sodium hydroxide, 1 mM sodium EDTA, 0.1% xylene cyanol, and 0.1% bromphenol blue). Aliquots of each reaction mixture were subjected to 20% denaturing PAGE. Gels were dried and visualized by using a phosphoimager and ImageQuant software (Molecular Dynamics).
Top1 reactions were performed as recently described. […] The reactions were terminated by adding SDS (0.5% final concentration) followed by the addition of two volumes of loading dye (80% formamide, 10 mM sodium hydroxide, 1 mM sodium EDTA, 0.1% xylene cyanol, and 0.1% bromphenol blue). Reactions were subjected to 20% denaturing PAGE. Gels were dried and visualized by using a Typhoon 8600 and ImageQuant software (Molecular Dynamics).

recombinant human Tdp1 = recombinant human Tdp1 (Homo sapiens (Human), UniProt Q9NUW8); experiment: Gel-based assay measuring the inhibition of recombinant Tdp1; type: biochemical; settings: for Tdp1 inhibitory activity (in words): recombinant Tdp1; for IC50: determined by duplicate, read-out: Tdp1 (semiquantitative IC50 scale)
Chain of recombinant human Tdp1 (Q9NUW8 whole entry): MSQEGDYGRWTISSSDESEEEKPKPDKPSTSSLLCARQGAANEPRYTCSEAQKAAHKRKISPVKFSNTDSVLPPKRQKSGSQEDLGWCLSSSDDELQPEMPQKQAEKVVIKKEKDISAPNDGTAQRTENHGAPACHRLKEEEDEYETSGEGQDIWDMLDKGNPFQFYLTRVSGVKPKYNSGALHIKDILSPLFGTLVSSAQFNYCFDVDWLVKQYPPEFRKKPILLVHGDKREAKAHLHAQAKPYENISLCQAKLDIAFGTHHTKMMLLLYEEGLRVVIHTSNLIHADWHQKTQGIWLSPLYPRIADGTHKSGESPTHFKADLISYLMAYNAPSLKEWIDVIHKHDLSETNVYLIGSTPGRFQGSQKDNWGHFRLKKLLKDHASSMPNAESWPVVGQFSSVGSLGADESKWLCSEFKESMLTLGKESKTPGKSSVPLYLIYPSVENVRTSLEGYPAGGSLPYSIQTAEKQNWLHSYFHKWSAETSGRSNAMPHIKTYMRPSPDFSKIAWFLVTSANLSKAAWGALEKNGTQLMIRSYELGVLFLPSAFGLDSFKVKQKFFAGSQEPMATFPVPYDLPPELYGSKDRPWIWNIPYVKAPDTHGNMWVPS
Experimental: Tdp1 inhibitory activity was measured by the drug's ability to inhibit the hydrolysis of the phosphodiester linkage between tyrosine and the 3′-end of the DNA substrate, and to prevent the generation of an oligonucleotide with a free 3′-phosphate (N14P). Therefore, the disappearance of the gel band for N14P indicated Tdp1 inhibition.
Gel-based Assay Measuring the Inhibition of Recombinant Tdp1.
A 5′-[^32P]-labeled single-stranded DNA oligonucleotide containing a 3′-phosphotyrosine (N14Y) was generated as described by Dexheimer et al. The DNA substrate was then incubated with 5 pM recombinant Tdp1 in the absence or presence of inhibitor for 15 min at room temperature in a buffer containing 50 mM Tris HCl, pH 7.5, 80 mM KCl, 2 mM EDTA, 1 mM DTT, 40 μg/ml BSA and 0.01% Tween-20. […] Gel images were scanned using a Typhoon 8600 (GE Healthcare) and densitometric analyses were performed using the ImageQuant software (GE Healthcare).

[1] = test system: all human cancer cell lines successfully tested; experiment: NCI screen, mean graph midpoint (MGM) for growth inhibition; type: cell-based; settings: Homo sapiens, read-out: MGM (μM)

Chain of human recombinant Top1 (P11387 whole entry): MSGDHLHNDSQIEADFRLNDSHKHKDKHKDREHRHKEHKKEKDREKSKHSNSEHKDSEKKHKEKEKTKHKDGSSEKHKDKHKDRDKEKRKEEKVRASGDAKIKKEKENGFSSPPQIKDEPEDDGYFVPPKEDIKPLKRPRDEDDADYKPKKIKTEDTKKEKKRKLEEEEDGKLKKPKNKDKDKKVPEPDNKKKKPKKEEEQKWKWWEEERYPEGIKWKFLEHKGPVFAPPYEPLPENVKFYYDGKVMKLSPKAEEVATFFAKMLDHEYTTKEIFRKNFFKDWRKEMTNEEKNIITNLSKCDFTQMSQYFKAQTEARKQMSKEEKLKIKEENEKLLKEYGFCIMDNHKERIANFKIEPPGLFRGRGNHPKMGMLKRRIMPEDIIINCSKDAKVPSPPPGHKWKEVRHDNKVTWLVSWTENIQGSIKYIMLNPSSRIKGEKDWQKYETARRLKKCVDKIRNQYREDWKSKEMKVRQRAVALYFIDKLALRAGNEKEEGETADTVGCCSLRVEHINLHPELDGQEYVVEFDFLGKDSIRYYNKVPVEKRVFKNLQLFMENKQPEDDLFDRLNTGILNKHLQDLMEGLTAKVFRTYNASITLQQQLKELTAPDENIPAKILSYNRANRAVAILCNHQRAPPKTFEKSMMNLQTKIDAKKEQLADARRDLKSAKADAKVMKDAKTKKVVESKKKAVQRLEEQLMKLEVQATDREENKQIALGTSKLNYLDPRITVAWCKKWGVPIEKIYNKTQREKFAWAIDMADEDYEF

COC(=O)C(=O)Nc1ccc2c3c(n(C)c(=O)c2c1)-c1ccccc1C3=O [Compound 9 of (B), Methyl 2-[(6-Methyl-5,11-dioxo-6,11-dihydro-5H-indeno[1,2-c]isoquinolin-3-yl)amino]-2-oxoacetate]
Top1, compound-induced DNA cleavage due to Top1 inhibition (human recombinant Top1): 0

COc1ccc2c(c1)-c1c(c3ccc([N+](=O)[O-])cc3c(=O)n1CCCN=[N+]=[N-])C2=O [Compound 50 of (B), 6-(3-Azidopropyl)-5,6-dihydro-8-methoxy-3-nitro-5,11-dioxo-11H-indeno[1,2-c]isoquinoline]
Tdp1 inhibitory activity (in words) (recombinant human Tdp1): very weak or inactive
Top1, compound-induced DNA cleavage due to Top1 inhibition (human recombinant Top1): +

COC(=O)CCC(=O)Nc1ccc2c3c(n(CCCNC(=O)OC(C)(C)C)c(=O)c2c1)-c1ccccc1C3=O [Compound 19 of (B), Methyl 4-[(6-(3-((tert-Butoxycarbonyl)amino)propyl)-5,11-dioxo-6,11-dihydro-5H-indeno[1,2-c]isoquinolin-3-yl)amino]-4-oxobutanoate]
IC50 (recombinant human Tdp1): > 111 µM
Top1, compound-induced DNA cleavage due to Top1 inhibition (human recombinant Top1): 0

COC(=O)CCC(=O)Nc1ccc2c3c(n(CCCN)c(=O)c2c1)-c1ccccc1C3=O [Compound 24 of (B), Methyl 4-[(6-(3-Aminopropyl)-5,11-dioxo-6,11-dihydro-5H-indeno[1,2-c]isoquinolin-3-yl)amino]-4-oxobutanoate]
Top1, compound-induced DNA cleavage due to Top1 inhibition (human recombinant Top1): (+)

Cl.NCCCn1c2c(c3ccc(NC(=O)CCCCC(=O)O)cc3c1=O)C(=O)c1ccccc1-2 [Compound 36 of (B), 6-[(6-(3-Aminopropyl)-5,11-dioxo-6,11-dihydro-5H-indeno[1,2-c]isoquinolin-3-yl)amino]-6-oxohexanoic Acid Hydrochloride]
Top1, compound-induced DNA cleavage due to Top1 inhibition (human recombinant Top1): +

COc1ccc2c(c1)-c1c(c3ccc([N+](=O)[O-])cc3c(=O)n1CCCBr)C2=O [Compound 49 of (B), 6-(3-Bromopropyl)-5,6-dihydro-8-methoxy-3-nitro-5,11-dioxo-11H-indeno[1,2-c]isoquinoline]
Tdp1 inhibitory activity (in words) (recombinant human Tdp1): very weak or inactive
Top1, compound-induced DNA cleavage due to Top1 inhibition (human recombinant Top1): +++

CC(C)(C)OC(=O)NCCCn1c2c(c3ccc(NC(=O)CCCC(=O)O)cc3c1=O)C(=O)c1ccccc1-2 [Compound 30 of (B), 5-[(6-(3-((tert-Butoxycarbonyl)amino)propyl)-5,11-dioxo-6,11-dihydro-5H-indeno[1,2-c]isoquinolin-3-yl)amino]-5-oxopentanoic Acid]
IC50 (recombinant human Tdp1): > 111 µM
Top1, compound-induced DNA cleavage due to Top1 inhibition (human recombinant Top1): 0

CCOC(=O)CNc1ccc2c3c(n(C)c(=O)c2c1)-c1ccccc1C3=O [Compound 38 of (B), Ethyl 2-[(6-Methyl-5,11-dioxo-6,11-dihydro-5H-indeno[1,2-c]isoquinolin-3-yl)amino]acetate]
Tdp1 inhibitory activity (in words) (recombinant human Tdp1; listed as 38): inactivity
Top1, compound-induced DNA cleavage due to Top1 inhibition (human recombinant Top1): 0

Cl.NCCCn1c2c(c3ccc(NC(=O)CCC(=O)O)cc3c1=O)C(=O)c1ccccc1-2 [Compound 34 of (B), 4-[(6-(3-Aminopropyl)-5,11-dioxo-6,11-dihydro-5H-indeno[1,2-c]isoquinolin-3-yl)amino]-4-oxobutanoic Acid Hydrochloride]
Top1, compound-induced DNA cleavage due to Top1 inhibition (human recombinant Top1): +

CC(C)(C)OC(=O)NCCCn1c2c(c3ccc(NC(=O)CCCCC(=O)O)cc3c1=O)C(=O)c1ccccc1-2 [Compound 31 of (B), 6-[(6-(3-((tert-Butoxycarbonyl)amino)propyl)-5,11-dioxo-6,11-dihydro-5H-indeno[1,2-c]isoquinolin-3-yl)amino]-6-oxohexanoic Acid]
Top1, compound-induced DNA cleavage due to Top1 inhibition (human recombinant Top1): (+)

Cl.NCCCn1c2c(c3ccc(NC(=O)CC(=O)O)cc3c1=O)C(=O)c1ccccc1-2 [Compound 33 of (B), 3-[(6-(3-Aminopropyl)-5,11-dioxo-6,11-dihydro-5H-indeno[1,2-c]isoquinolin-3-yl)amino]-3-oxopropanoic Acid Hydrochloride]
Top1, compound-induced DNA cleavage due to Top1 inhibition (human recombinant Top1): +

CC(C)(C)OC(=O)NCCCn1c2c(c3ccc(NC(=O)CCC(=O)O)cc3c1=O)C(=O)c1ccccc1-2 [Compound 29 of (B), 4-[(6-(3-((tert-Butoxycarbonyl)amino)propyl)-5,11-dioxo-6,11-dihydro-5H-indeno[1,2-c]isoquinolin-3-yl)amino]-4-oxobutanoic Acid]
IC50 (recombinant human Tdp1): 37 to 111 µM
Top1, compound-induced DNA cleavage due to Top1 inhibition (human recombinant Top1): (+)

COc1ccc2c(c1)-c1c(c3ccc([N+](=O)[O-])cc3c(=O)n1CCCN1CCOCC1)C2=O [Compound 53 of (B), 8-Methoxy-6-(3-morpholinopropyl)-3-nitro-5H-indeno[1,2-c]isoquinoline-5,11(6H)-dione]
Tdp1 inhibitory activity (in words) (recombinant human Tdp1): very weak or inactive
Top1, compound-induced DNA cleavage due to Top1 inhibition (human recombinant Top1): ++

Cc1ccc(S(=O)(=O)OCCCCCCCn2c3c(c4ccccc4c2=O)C(=O)c2ccccc2-3)cc1 [Compound 29, 7-(5,11-Dioxo-5H-indeno[1,2-c]isoquinolin-6(11H)-yl)heptyl-4-methyl-benzenesulfonate]
Tdp1 inhibitory activity (in words) (recombinant human Tdp1): weakly active

COC(=O)CC(=O)Nc1ccc2c3c(n(CCCN)c(=O)c2c1)-c1ccccc1C3=O [Compound 23 of (B), Methyl 3-[(6-(3-Aminopropyl)-5,11-dioxo-6,11-dihydro-5H-indeno[1,2-c]isoquinolin-3-yl)amino]-3-oxopropanoate]
IC50 [1]: 1.86 µM

O=C1c2ccccc2-c2c1c1ccccc1c(=O)n2CCCl [Compound 30, 6-(2-Chloroethyl)-5H-indeno[1,2-c]isoquinoline-5,11(6H)-dione]
Tdp1 inhibitory activity (in words) (recombinant human Tdp1): inactive

Cl.NCCCn1c2c(c3ccc(NC(=O)CCCC(=O)O)cc3c1=O)C(=O)c1ccccc1-2 [Compound 35 of (B), 5-[(6-(3-Aminopropyl)-5,11-dioxo-6,11-dihydro-5H-indeno[1,2-c]isoquinolin-3-yl)amino]-5-oxopentanoic Acid Hydrochloride]
Top1, compound-induced DNA cleavage due to Top1 inhibition (human recombinant Top1): 0

CS(=O)(=O)NCCCCCCCn1c2c(c3ccccc3c1=O)C(=O)c1ccccc1-2 [Compound 85]
Top1 inhibition (in words) (human recombinant Top1): active
suppression of Top1-mediated DNA cleavage at high drug concentration (human recombinant Top1; high concentration of 100 μM): complete suppression
Top1, compound-induced DNA cleavage due to Top1 inhibition (human recombinant Top1): +++

COC(=O)CC(=O)Nc1ccc2c3c(n(CCCNC(=O)OC(C)(C)C)c(=O)c2c1)-c1ccccc1C3=O [Compound 18 of (B), Methyl 3-[(6-(3-((tert-Butoxycarbonyl)amino)propyl)-5,11-dioxo-6,11-dihydro-5H-indeno[1,2-c]isoquinolin-3-yl)amino]-3-oxopropanoate]
IC50 (recombinant human Tdp1): > 111 µM
Top1, compound-induced DNA cleavage due to Top1 inhibition (human recombinant Top1): 0

COC(=O)CCC(=O)Nc1ccc2c3c(n(C)c(=O)c2c1)-c1ccccc1C3=O [Compound 11 of (B), Methyl 4-[(6-Methyl-5,11-dioxo-6,11-dihydro-5H-indeno[1,2-c]isoquinolin-3-yl)amino]-4-oxobutanoate]
Top1, compound-induced DNA cleavage due to Top1 inhibition (human recombinant Top1): (+)

Cn1c2c(c3ccc(NCC(=O)O)cc3c1=O)C(=O)c1ccccc1-2 [Compound 41 of (B), 2-[(6-Methyl-5,11-dioxo-6,11-dihydro-5H-indeno[1,2-c]isoquinolin-3-yl)-amino]acetic Acid]
Tdp1 inhibitory activity (in words) (recombinant human Tdp1; listed as 41): inactivity
Top1, compound-induced DNA cleavage due to Top1 inhibition (human recombinant Top1): 0

COC(=O)CC(=O)Nc1ccc2c3c(n(C)c(=O)c2c1)-c1ccccc1C3=O [Compound 10 of (B), Methyl 3-[(6-Methyl-5,11-dioxo-6,11-dihydro-5H-indeno[1,2-c]isoquinolin-3-yl)amino]-3-oxopropanoate]
Top1, compound-induced DNA cleavage due to Top1 inhibition (human recombinant Top1): 0

N#Cc1ccc2c3c(n(CCCN4CCOCC4)c(=O)c2c1)-c1ccccc1C3=O [Compound 73]
IC50 (recombinant human Tdp1): > 111 µM
Top1, compound-induced DNA cleavage due to Top1 inhibition (human recombinant Top1): ++

Cl.NCCCn1c2c(c3ccc(NC(=O)C(=O)O)cc3c1=O)C(=O)c1ccccc1-2 [Compound 32 of (B), 2-[(6-(3-Aminopropyl)-5,11-dioxo-6,11-dihydro-5H-indeno[1,2-c]isoquinolin-3-yl)amino]-2-oxoacetic Acid Hydrochloride]
Top1, compound-induced DNA cleavage due to Top1 inhibition (human recombinant Top1): +

COC(=O)CCCC(=O)Nc1ccc2c3c(n(C)c(=O)c2c1)-c1ccccc1C3=O [Compound 12 of (B), Methyl 5-[(6-Methyl-5,11-dioxo-6,11-dihydro-5H-indeno[1,2-c]isoquinolin-3-yl)amino]-5-oxopentanoate]
Top1, compound-induced DNA cleavage due to Top1 inhibition (human recombinant Top1): +

N#Cc1ccc2c3c(n(CCCn4ccnc4)c(=O)c2c1)-c1ccccc1C3=O [Compound 72]
IC50 (recombinant human Tdp1): > 111 µM
Top1, compound-induced DNA cleavage due to Top1 inhibition (human recombinant Top1): ++

COC(=O)CCCCC(=O)Nc1ccc2c3c(n(C)c(=O)c2c1)-c1ccccc1C3=O [Compound 13 of (B), Methyl 6-[(6-Methyl-5,11-dioxo-6,11-dihydro-5H-indeno[1,2-c]isoquinolin-3-yl)amino]-6-oxohexanoate]
Top1, compound-induced DNA cleavage due to Top1 inhibition (human recombinant Top1): 0

CC(C)(C)OC(=O)NCCCn1c2c(c3ccc(NCC(=O)O)cc3c1=O)C(=O)c1ccccc1-2 [Compound 42 of (B), 2-((6-(3-((tert-Butoxycarbonyl)amino)propyl)-5,11-dioxo-6,11-dihydro-5H-indeno[1,2-c]isoquinolin-3-yl)amino)acetic Acid]
Tdp1 inhibitory activity (in words) (recombinant human Tdp1): inactivity
Top1, compound-induced DNA cleavage due to Top1 inhibition (human recombinant Top1): 0

COC(=O)CCCC(=O)Nc1ccc2c3c(n(CCCNC(=O)OC(C)(C)C)c(=O)c2c1)-c1ccccc1C3=O [Compound 20 of (B), Methyl 5-[(6-(3-((tert-Butoxycarbonyl)amino)propyl)-5,11-dioxo-6,11-dihydro-5H-indeno[1,2-c]isoquinolin-3-yl)amino]-5-oxopentanoate]
IC50 (recombinant human Tdp1): > 111 µM
Top1, compound-induced DNA cleavage due to Top1 inhibition (human recombinant Top1): 0
